# Assay results published in ChEMBL document CHEMBL4049386, “Discovery of an Inhibitor of the Proteasome Subunit Rpn11” (J Med Chem, 2017).
# System: HCT-116
# Test: cells
# Details: Homo sapiens, HCT-116, 72 h
# Description: Antiproliferative activity against human HCT116 cells after 72 hrs by Cell Titer-Glo assay
row,Structure (SMILES),IC50
1,Sc1cccc2ncccc12,> 100 µM
2,Oc1cccc2cccnc12 [OXYQUINOLINE],6 µM
3,Cc1cccc2cccnc12,> 100 µM

# Other lines, results leading:
row,IC50,Structure (SMILES)
1,> 50 µM,Cc1ccc2cccc(S)c2n1
2,> 100 µM,Sc1cccc2ccccc12
3,> 100 µM,CSc1cccc2cccnc12

# System: not listed separately
# Test: Aqueous solubility of the compound
# Format: physicochemical
# Details: buffer
row,Structure (SMILES),solubility
1,O=C(NCc1ccc(F)cc1)c1cnc2c(SSc3cccc4cc(C(=O)NCc5ccc(F)cc5)cnc34)cccc2c1,Insoluble
2,O=C(NCc1cccs1)c1cnc2c(SSc3cccc4cc(C(=O)NCc5cccs5)cnc34)cccc2c1,Soluble
3,O=C(NCCc1ccco1)c1cnc2c(SSc3cccc4cc(C(=O)NCCc5ccco5)cnc34)cccc2c1,Soluble
4,O=C(NCc1ccc(C(F)(F)F)cc1)c1cnc2c(SSc3cccc4cc(C(=O)NCc5ccc(C(F)(F)F)cc5)cnc34)cccc2c1,Insoluble
5,O=C(NCC1CCCO1)c1cnc2c(SSc3cccc4cc(C(=O)NCC5CCCO5)cnc34)cccc2c1 (stereo not given),Soluble
6,O=C(NCCc1cccs1)c1cnc2c(SSc3cccc4cc(C(=O)NCCc5cccs5)cnc34)cccc2c1,Soluble
7,O=C(Nc1ncco1)c1cnc2c(SSc3cccc4cc(C(=O)Nc5ncco5)cnc34)cccc2c1,Soluble
8,COc1ccc(CNC(=O)c2cnc3c(SSc4cccc5cc(C(=O)NCc6ccc(OC)cc6)cnc45)cccc3c2)cc1,Insoluble
9,O=C(NCc1nccs1)c1cnc2c(SSc3cccc4cc(C(=O)NCc5nccs5)cnc34)cccc2c1,Soluble
10,O=C(NCc1ccco1)c1cnc2c(SSc3cccc4cc(C(=O)NCc5ccco5)cnc34)cccc2c1,Soluble

# Continued, values first:
row,solubility,Structure (SMILES)
1,Soluble,O=C(NCc1cccnc1)c1cnc2c(SSc3cccc4cc(C(=O)NCc5cccnc5)cnc34)cccc2c1
2,Soluble,O=C(NCc1ccccn1)c1cnc2c(SSc3cccc4cc(C(=O)NCc5ccccn5)cnc34)cccc2c1
3,Insoluble,O=C(NCc1ccc2c(c1)OCO2)c1cnc2c(SSc3cccc4cc(C(=O)NCc5ccc6c(c5)OCO6)cnc34)cccc2c1

# Target: 72 kDa type IV collagenase (Homo sapiens, UniProt P08253)
# Test: Inhibition of recombinant human MMP2 catalytic domain (Tyr110 to Asp452 residues) expressed in yeast using Mca-Pro-Leu-Gly-Leu-Dpa-Ala-Arg-NH2.AcOH as substrate preincubated for 30 mins followed by substrate addition measured every minute for 20 mins by fluorescence assay
# Details: not given
# Chain of 72 kDa type IV collagenase (P08253 whole entry, the tested form may be a part): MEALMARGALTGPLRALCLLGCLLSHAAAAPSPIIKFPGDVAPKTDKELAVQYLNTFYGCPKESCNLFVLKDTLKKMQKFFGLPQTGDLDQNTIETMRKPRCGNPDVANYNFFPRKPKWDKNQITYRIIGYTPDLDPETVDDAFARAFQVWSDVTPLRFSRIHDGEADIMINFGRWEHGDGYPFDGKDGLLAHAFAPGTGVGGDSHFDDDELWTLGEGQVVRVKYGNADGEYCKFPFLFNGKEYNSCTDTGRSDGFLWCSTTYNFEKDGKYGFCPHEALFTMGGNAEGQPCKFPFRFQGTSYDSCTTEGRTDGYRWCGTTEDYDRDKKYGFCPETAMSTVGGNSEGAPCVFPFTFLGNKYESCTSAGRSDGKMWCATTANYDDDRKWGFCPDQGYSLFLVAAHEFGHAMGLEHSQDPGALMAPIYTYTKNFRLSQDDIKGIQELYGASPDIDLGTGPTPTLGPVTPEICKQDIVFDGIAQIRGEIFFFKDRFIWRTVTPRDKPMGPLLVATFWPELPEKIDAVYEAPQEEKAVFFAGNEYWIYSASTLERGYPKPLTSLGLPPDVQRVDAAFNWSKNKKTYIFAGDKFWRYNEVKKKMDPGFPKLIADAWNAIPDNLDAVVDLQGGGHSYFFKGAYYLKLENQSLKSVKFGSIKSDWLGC
row,IC50,Structure (SMILES)
1,> 200 µM,Cc1ccc2cccc(S)c2n1

# Target: COP9 signalosome complex subunit 5 (Homo sapiens, UniProt Q92905)
# Test: Inhibition of CSN5 (unknown origin) using SCFskp2-Nedd8OG as substrate after 1 hr by fluorescence polarization assay
# Details: not given
# Chain of COP9 signalosome complex subunit 5 (Q92905 whole entry, one chain of several): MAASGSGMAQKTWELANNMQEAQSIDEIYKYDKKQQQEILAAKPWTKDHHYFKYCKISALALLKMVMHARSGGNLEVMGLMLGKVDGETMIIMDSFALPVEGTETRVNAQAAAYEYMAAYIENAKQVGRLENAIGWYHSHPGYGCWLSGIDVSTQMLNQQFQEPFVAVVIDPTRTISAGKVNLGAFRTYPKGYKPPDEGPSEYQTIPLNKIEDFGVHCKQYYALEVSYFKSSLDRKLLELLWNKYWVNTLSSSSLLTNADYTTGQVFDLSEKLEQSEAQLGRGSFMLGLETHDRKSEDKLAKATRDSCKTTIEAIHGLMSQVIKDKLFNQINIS
row,Structure (SMILES),IC50
1,O=C(NCc1ccc(C(F)(F)F)cc1)c1cnc2c(SSc3cccc4cc(C(=O)NCc5ccc(C(F)(F)F)cc5)cnc34)cccc2c1,> 100 µM
2,O=C(NCc1ccncc1)c1cnc2c(SSc3cccc4cc(C(=O)NCc5ccncc5)cnc34)cccc2c1,7 µM
3,O=C(Nc1ncco1)c1cnc2c(SSc3cccc4cc(C(=O)Nc5ncco5)cnc34)cccc2c1,15 µM
4,O=C(NCCN1CCOCC1)c1cnc2c(SSc3cccc4cc(C(=O)NCCN5CCOCC5)cnc34)cccc2c1,> 100 µM
5,NC(=O)c1cnc2c(SSc3cccc4cc(C(N)=O)cnc34)cccc2c1,15.3 µM
6,O=C(NCc1nccs1)c1cnc2c(SSc3cccc4cc(C(=O)NCc5nccs5)cnc34)cccc2c1,24 µM
7,O=C(NCc1ccco1)c1cnc2c(SSc3cccc4cc(C(=O)NCc5ccco5)cnc34)cccc2c1,< 0.5 µM

# Second part, the compound after the results:
row,IC50,Structure (SMILES)
1,> 100 µM,Cc1ccc2cccc(S)c2n1
2,> 100 µM,COC(=O)CNC(=O)c1cnc2c(SSc3cccc4cc(C(=O)NCC(=O)OC)cnc34)cccc2c1
3,> 100 µM,CSc1cccc2cc(C(=O)NCCc3nccs3)cnc12
4,> 100 µM,O=C(NCCc1nccs1)c1cnc2c(O)cccc2c1
5,> 100 µM,O=C(NCc1cccnc1)c1cnc2c(SSc3cccc4cc(C(=O)NCc5cccnc5)cnc34)cccc2c1
6,> 30 µM,O=C(CNC(=O)c1cnc2c(SSc3cccc4cc(C(=O)NCC(=O)NCC(=O)OCc5ccccc5)cnc34)cccc2c1)NCC(=O)OCc1ccccc1
7,> 50 µM,O=C(NCc1ccccn1)c1cnc2c(SSc3cccc4cc(C(=O)NCc5ccccn5)cnc34)cccc2c1
8,35 µM,O=C(NCCc1nccs1)c1ccc2c(SSc3cccc4nc(C(=O)NCCc5nccs5)ccc34)cccc2n1

# Target: T1, STAM-binding protein (Homo sapiens, UniProt O95630)
# T1 sequence (O95630 whole entry): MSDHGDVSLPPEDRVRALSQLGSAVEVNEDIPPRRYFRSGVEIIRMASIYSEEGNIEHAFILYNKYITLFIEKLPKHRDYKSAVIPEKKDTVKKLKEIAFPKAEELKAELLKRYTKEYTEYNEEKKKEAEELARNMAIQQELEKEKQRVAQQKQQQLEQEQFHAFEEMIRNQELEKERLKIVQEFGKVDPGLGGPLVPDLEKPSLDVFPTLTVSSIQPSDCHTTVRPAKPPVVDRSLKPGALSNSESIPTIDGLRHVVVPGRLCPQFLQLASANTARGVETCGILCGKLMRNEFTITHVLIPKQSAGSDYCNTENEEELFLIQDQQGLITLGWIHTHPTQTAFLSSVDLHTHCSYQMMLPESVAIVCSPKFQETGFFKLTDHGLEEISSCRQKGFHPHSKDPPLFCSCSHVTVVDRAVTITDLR
# Test: Inhibition of AMSH (unknown origin) using DiUbK63TAMRA as substrate by fluorescence assay
# Details: not given
row,Structure (SMILES),IC50
1,O=C(NCc1ccc(F)cc1)c1cnc2c(SSc3cccc4cc(C(=O)NCc5ccc(F)cc5)cnc34)cccc2c1,0.9 µM
2,O=C(NCc1ccc(C(F)(F)F)cc1)c1cnc2c(SSc3cccc4cc(C(=O)NCc5ccc(C(F)(F)F)cc5)cnc34)cccc2c1,3.5 µM
3,O=C(NCc1ccncc1)c1cnc2c(SSc3cccc4cc(C(=O)NCc5ccncc5)cnc34)cccc2c1,0.5 µM
4,O=C(Nc1ncco1)c1cnc2c(SSc3cccc4cc(C(=O)Nc5ncco5)cnc34)cccc2c1,5 µM
5,O=C(NCCN1CCOCC1)c1cnc2c(SSc3cccc4cc(C(=O)NCCN5CCOCC5)cnc34)cccc2c1,26 µM
6,NC(=O)c1cnc2c(SSc3cccc4cc(C(N)=O)cnc34)cccc2c1,1.7 µM
7,O=C(NCc1ccccc1)c1cnc2c(SSc3cccc4cc(C(=O)NCc5ccccc5)cnc34)cccc2c1,> 10 µM

# Other lines, results leading:
row,IC50,Structure (SMILES)
1,2.2 µM,COC(=O)CNC(=O)c1cnc2c(SSc3cccc4cc(C(=O)NCC(=O)OC)cnc34)cccc2c1
2,> 100 µM,CSc1cccc2cc(C(=O)NCCc3nccs3)cnc12
3,> 100 µM,O=C(NCCc1nccs1)c1cnc2c(O)cccc2c1
4,3.5 µM,O=C(CNC(=O)c1cnc2c(SSc3cccc4cc(C(=O)NCC(=O)NCC(=O)OCc5ccccc5)cnc34)cccc2c1)NCC(=O)OCc1ccccc1
5,17 µM,O=C(NCc1ccccn1)c1cnc2c(SSc3cccc4cc(C(=O)NCc5ccccn5)cnc34)cccc2c1
6,> 100 µM,O=C(NCCc1nccs1)c1ccc2c(SSc3cccc4nc(C(=O)NCCc5nccs5)ccc34)cccc2n1
7,< 0.2 µM,O=C(NCc1ccc2c(c1)OCO2)c1cnc2c(SSc3cccc4cc(C(=O)NCc5ccc6c(c5)OCO6)cnc34)cccc2c1
8,4.1 µM,CNC(=O)c1cnc2c(SSc3cccc4cc(C(=O)NC)cnc34)cccc2c1

# Target: T2, 26S proteasome non-ATPase regulatory subunit 14 (Homo sapiens, UniProt O00487)
# Test: Inhibition of 26S proteasome regulatory subunit RPN11 deubiquitinating activity in beta5 inhibitor MG132 pretreated human HeLa cells expressing UbG76V-GFP assessed as reduction in UbG76V-GFP degradation rate by fluorescence microscopic method
# Format: cell-based
# Details: not given
# T2 sequence (O00487 whole entry): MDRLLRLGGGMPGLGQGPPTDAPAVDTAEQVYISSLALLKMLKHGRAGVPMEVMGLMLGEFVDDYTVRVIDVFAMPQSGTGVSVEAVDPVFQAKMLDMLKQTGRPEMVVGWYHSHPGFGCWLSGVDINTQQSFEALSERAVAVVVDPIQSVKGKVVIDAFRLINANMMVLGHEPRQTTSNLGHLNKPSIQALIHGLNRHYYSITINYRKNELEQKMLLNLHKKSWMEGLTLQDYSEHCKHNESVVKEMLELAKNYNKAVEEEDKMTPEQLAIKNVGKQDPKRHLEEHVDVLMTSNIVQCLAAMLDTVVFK
row,Structure (SMILES),IC50
1,O=C(NCc1ccc(F)cc1)c1cnc2c(SSc3cccc4cc(C(=O)NCc5ccc(F)cc5)cnc34)cccc2c1,> 10 µM
2,O=C(NCc1cccs1)c1cnc2c(SSc3cccc4cc(C(=O)NCc5cccs5)cnc34)cccc2c1,5 µM
3,O=C(NCCc1ccco1)c1cnc2c(SSc3cccc4cc(C(=O)NCCc5ccco5)cnc34)cccc2c1,1.4 µM
4,O=C(NCc1ccc(C(F)(F)F)cc1)c1cnc2c(SSc3cccc4cc(C(=O)NCc5ccc(C(F)(F)F)cc5)cnc34)cccc2c1,> 10 µM
5,O=C(NCc1ccncc1)c1cnc2c(SSc3cccc4cc(C(=O)NCc5ccncc5)cnc34)cccc2c1,> 10 µM
6,O=C(NCC1CCCO1)c1cnc2c(SSc3cccc4cc(C(=O)NCC5CCCO5)cnc34)cccc2c1 (stereo not given),1 µM
7,O=C(NCCc1cccs1)c1cnc2c(SSc3cccc4cc(C(=O)NCCc5cccs5)cnc34)cccc2c1,5 µM
8,O=C(Nc1ncco1)c1cnc2c(SSc3cccc4cc(C(=O)Nc5ncco5)cnc34)cccc2c1,> 10 µM
9,O=C(NCCN1CCOCC1)c1cnc2c(SSc3cccc4cc(C(=O)NCCN5CCOCC5)cnc34)cccc2c1,> 10 µM
10,COc1ccc(CNC(=O)c2cnc3c(SSc4cccc5cc(C(=O)NCc6ccc(OC)cc6)cnc45)cccc3c2)cc1,> 10 µM
11,NC(=O)c1cnc2c(SSc3cccc4cc(C(N)=O)cnc34)cccc2c1,1.2 µM
12,O=C(NCc1ccco1)c1cnc2c(SSc3cccc4cc(C(=O)NCc5ccco5)cnc34)cccc2c1,1 µM
13,O=C(NCc1ccccc1)c1cnc2c(SSc3cccc4cc(C(=O)NCc5ccccc5)cnc34)cccc2c1,> 10 µM

# The next lines start with the values.
row,IC50,Structure (SMILES)
1,> 0.3 µM,COC(=O)CNC(=O)c1cnc2c(SSc3cccc4cc(C(=O)NCC(=O)OC)cnc34)cccc2c1
2,> 100 µM,CSc1cccc2cc(C(=O)NCCc3nccs3)cnc12
3,> 100 µM,O=C(NCCc1nccs1)c1cnc2c(O)cccc2c1
4,> 10 µM,O=C(NCc1cccnc1)c1cnc2c(SSc3cccc4cc(C(=O)NCc5cccnc5)cnc34)cccc2c1
5,> 10 µM,O=C(CNC(=O)c1cnc2c(SSc3cccc4cc(C(=O)NCC(=O)NCC(=O)OCc5ccccc5)cnc34)cccc2c1)NCC(=O)OCc1ccccc1
6,> 10 µM,O=C(NCc1ccccn1)c1cnc2c(SSc3cccc4cc(C(=O)NCc5ccccn5)cnc34)cccc2c1
7,> 100 µM,O=C(NCCc1nccs1)c1ccc2c(SSc3cccc4nc(C(=O)NCCc5nccs5)ccc34)cccc2n1
8,> 10 µM,O=C(NCc1ccc2c(c1)OCO2)c1cnc2c(SSc3cccc4cc(C(=O)NCc5ccc6c(c5)OCO6)cnc34)cccc2c1

# Target: T2, 26S proteasome non-ATPase regulatory subunit 14
# Test: Inhibition of 26S proteasome regulatory subunit RPN11 deubiquitinating activity in human erythrocytes using Ub4-pepOG protein substrate preincubated for 1 hr followed by substrate addition measured after 80 mins by fluorescence polarization assay
# Details: not given
row,Structure (SMILES),IC50
1,O=C(NCc1ccc(F)cc1)c1cnc2c(SSc3cccc4cc(C(=O)NCc5ccc(F)cc5)cnc34)cccc2c1,< 0.2 µM
2,O=C(NCc1ccc(C(F)(F)F)cc1)c1cnc2c(SSc3cccc4cc(C(=O)NCc5ccc(C(F)(F)F)cc5)cnc34)cccc2c1,0.8 µM
3,O=C(NCc1ccncc1)c1cnc2c(SSc3cccc4cc(C(=O)NCc5ccncc5)cnc34)cccc2c1,0.2 µM
4,O=C(Nc1ncco1)c1cnc2c(SSc3cccc4cc(C(=O)Nc5ncco5)cnc34)cccc2c1,2.6 µM
5,Sc1cccc2ncccc12,> 100 µM
6,Nc1cccc2cccnc12 [8-AMINOQUINOLINE],> 100 µM
7,COc1ccc(CNC(=O)c2cnc3c(SSc4cccc5cc(C(=O)NCc6ccc(OC)cc6)cnc45)cccc3c2)cc1,< 0.2 µM
8,Oc1cccc2cccnc12 [OXYQUINOLINE],> 100 µM
9,Cc1cccc2cccnc12,> 100 µM
10,O=C(NCc1ccccc1)c1ccc2cccc(SSc3cccc4ccc(C(=O)NCc5ccccc5)nc34)c2n1,> 100 µM

# The next lines start with the values.
row,IC50,Structure (SMILES)
1,> 100 µM,Cc1ccc2cccc(S)c2n1
2,> 2 µM,COC(=O)CNC(=O)c1cnc2c(SSc3cccc4cc(C(=O)NCC(=O)OC)cnc34)cccc2c1
3,> 20 µM,O=C(O)c1ccc2cccc(SSc3cccc4ccc(C(=O)O)nc34)c2n1
4,> 100 µM,Sc1cccc2ccccc12
5,> 40 µM,CSc1cccc2cc(C(=O)NCCc3nccs3)cnc12
6,1 µM,O=C(NCc1cccs1)c1ccnc2c(SSc3cccc4c(C(=O)NCc5cccs5)ccnc34)cccc12
7,1 µM,COC(=O)c1ccnc2c(SSc3cccc4c(C(=O)OC)ccnc34)cccc12
8,> 40 µM,O=C(NCCc1nccs1)c1cnc2c(O)cccc2c1
9,3.2 µM,O=C(NCc1cccnc1)c1cnc2c(SSc3cccc4cc(C(=O)NCc5cccnc5)cnc34)cccc2c1
10,1.1 µM,O=C(O)c1cnc2c(SSc3cccc4cc(C(=O)O)cnc34)cccc2c1
11,> 5 µM,O=C(CNC(=O)c1cnc2c(SSc3cccc4cc(C(=O)NCC(=O)NCC(=O)OCc5ccccc5)cnc34)cccc2c1)NCC(=O)OCc1ccccc1
12,> 100 µM,CSc1cccc2cccnc12
13,1.3 µM,O=C(O)c1ccnc2c(SSc3cccc4c(C(=O)O)ccnc34)cccc12
14,4 µM,O=C(NCc1ccccn1)c1cnc2c(SSc3cccc4cc(C(=O)NCc5ccccn5)cnc34)cccc2c1
15,2.2 µM,O=C(NCc1ccco1)c1ccnc2c(SSc3cccc4c(C(=O)NCc5ccco5)ccnc34)cccc12
16,0.9 µM,COC(=O)c1cnc2c(SSc3cccc4cc(C(=O)OC)cnc34)cccc2c1
17,> 100 µM,O=C(NCCc1nccs1)c1ccc2c(SSc3cccc4nc(C(=O)NCCc5nccs5)ccc34)cccc2n1
18,> 100 µM,O=C(NCc1cccs1)c1ccc2cccc(SSc3cccc4ccc(C(=O)NCc5cccs5)nc34)c2n1
19,> 50 µM,COC(=O)c1ccc2cccc(SSc3cccc4ccc(C(=O)OC)nc34)c2n1
